From the NIST ThermoML archive (doi:10.1016/j.jct.2015.02.011)

Tests used:
[1] = 100.7 kPa, Liquid; for speed of sound: Frequency=3 MHz, Sing-around technique in a fixed-path interferometer; for mass density: Vibrating tube method
[2] = refractive index (Na D-line) (dimensionless); details: 100.7 kPa, Liquid, Standard Abbe refractometry
[3] = xn = mol fraction of the nth substance listed; details: 100.7 kPa, Liquid, x2 = 0; for speed of sound: Frequency=3 MHz, Sing-around technique in a fixed-path interferometer; for mass density: Vibrating tube method
[4] = refractive index (Na D-line) (dimensionless); xn = mol fraction of the nth substance listed; details: 100.7 kPa, Liquid, Standard Abbe refractometry, x2 = 0

C1CCOC1 [tetrahydrofuran]
Details | mass density, [1] [kg/m3] | refractive index, [2] | speed of sound, [1] [m/s]
293.15 K | 888.766 | 1.40696 | 1305
298.15 K | 883.297 | 1.4042 | 1280.8
303.15 K | 877.809 | 1.40157 | 1256.8
308.15 K | 872.279 | 1.39885 | 1232.9
313.15 K | 866.713 | 1.39623 | 1209.2
318.15 K | 861.106 | 1.39349 | 1185.7
323.15 K | 855.456 | 1.39083 | 1162.3

C1CCOC1 [tetrahydrofuran] + CCCCn1cc[n+](C)c1.F[P-](F)(F)(F)(F)F
Details | mass density, [3] [kg/m3] | refractive index, [4] | speed of sound, [3] [m/s]
293.15 K | 888.766 | 1.40696 | 1305
298.15 K | 883.297 | 1.4042 | 1280.8
303.15 K | 877.809 | 1.40157 | 1256.8
308.15 K | 872.279 | 1.39885 | 1232.9
313.15 K | 866.713 | 1.39623 | 1209.2
318.15 K | 861.106 | 1.39349 | 1185.7
323.15 K | 855.456 | 1.39083 | 1162.3

CCCCCCCC[n+]1ccn(C)c1.F[P-](F)(F)(F)(F)F [1-octyl-3-methylimidazolium hexafluorophosphate]
Details | mass density, [1] [kg/m3] | refractive index, [2] | speed of sound, [1] [m/s]
293.15 K | 1238.77 | 1.42441 | 1421.2
298.15 K | 1234.79 | 1.42312 | 1406.5
303.15 K | 1230.84 | 1.42171 | 1392.4
308.15 K | 1227.09 | 1.42029 | 1379
313.15 K | 1223.3 | 1.41888 | 1365.8
318.15 K | 1219.5 | 1.4175 | 1351.2
323.15 K | 1215.42 | 1.41601 | 1338

C1CCOC1 [tetrahydrofuran] + CCCCCCn1cc[n+](C)c1.F[P-](F)(F)(F)(F)F
Details | mass density, [3] [kg/m3] | refractive index, [4] | speed of sound, [3] [m/s]
293.15 K | 888.766 | 1.40696 | 1305
298.15 K | 883.297 | 1.4042 | 1280.8
303.15 K | 877.809 | 1.40157 | 1256.8
308.15 K | 872.279 | 1.39885 | 1232.9
313.15 K | 866.713 | 1.39623 | 1209.2
318.15 K | 861.106 | 1.39349 | 1185.7
323.15 K | 855.456 | 1.39083 | 1162.3

CCCCCCn1cc[n+](C)c1.F[P-](F)(F)(F)(F)F [1-hexyl-3-methylimidazolium hexafluorophosphate]
Details | mass density, [1] [kg/m3] | refractive index, [2] | speed of sound, [1] [m/s]
293.15 K | 1296.72 | 1.41958 | 1437.7
298.15 K | 1292.62 | 1.41832 | 1424.3
303.15 K | 1288.61 | 1.41692 | 1411.5
308.15 K | 1284.72 | 1.41564 | 1399
313.15 K | 1280.82 | 1.41422 | 1386.9
318.15 K | 1276.37 | 1.41306 | 1375
323.15 K | 1272.45 | 1.41175 | 1363.3

CCCCn1cc[n+](C)c1.F[P-](F)(F)(F)(F)F [1-butyl-3-methylimidazolium hexafluorophosphate]
Details | mass density, [1] [kg/m3] | refractive index, [2] | speed of sound, [1] [m/s]
293.15 K | 1370.41 | 1.41068 | 1454.6
298.15 K | 1366.26 | 1.40943 | 1442.3
303.15 K | 1362.13 | 1.40818 | 1430.2
308.15 K | 1357.86 | 1.40693 | 1418.4
313.15 K | 1353.88 | 1.40567 | 1406.7
318.15 K | 1349.88 | 1.40443 | 1395.2
323.15 K | 1345.57 | 1.40312 | 1384.1

C1CCOC1 [tetrahydrofuran] + CCCCCCCC[n+]1ccn(C)c1.F[P-](F)(F)(F)(F)F
Details | mass density, [3] [kg/m3] | refractive index, [4] | speed of sound, [3] [m/s]
293.15 K | 888.766 | 1.40696 | 1305
298.15 K | 883.297 | 1.4042 | 1280.8
303.15 K | 877.809 | 1.40157 | 1256.8
308.15 K | 872.279 | 1.39885 | 1232.9
313.15 K | 866.713 | 1.39623 | 1209.2
318.15 K | 861.106 | 1.39349 | 1185.7
323.15 K | 855.456 | 1.39083 | 1162.3
